According to publication PMC12169614, “Exploring Long Arm Amide-Linked Side Chains in the Design of Antifungal Azole Inhibitors of Sterol 14α-Demethylase (CYP51)” (Journal of Medicinal Chemistry, 2025):

Assays:
[1] = tested on: Y2459 OE CaCYP51 CaCpr; experiment: MIC80 determination, strain Y2459; assay type: cell-based, S. cerevisiae
Summary of the method: (§1)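 Seed at OD600 0.005 (1.5 × 10^4 CFU); shake at 200 rpm, 30 °C; stop at 48 h (S. cerevisiae) or 24 h (C. albicans); measure OD600 to derive MIC80.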

[2] = tested on: Y2769 OE CauCYP51 K143R; experiment: MIC80 determination, strain Y2769; assay type: cell-based, S. cerevisiae
Method: (§2) Cells were seeded at an OD600 nm of 0.005 (1.5 × 10^4 CFU), and the plates were incubated at 30 °C with shaking at 200 rpm for 48 h for S. cerevisiae strains and 24 h for C. albicans . Cell growth was assessed by measuring the OD600 nm using a Synergy 2 multimode plate reader (BioTek Instruments, VT, USA). Each MIC80 was determined using triplicate measurements for pools of 4 clones of each strain in three separate experiments.

[3] = tested on: Y2766 OE CauCDR1; experiment: MIC80 determination, strain Y2766; assay type: cell-based, S. cerevisiae; conditions: Saccharomyces cerevisiae
Method: as §2

[4] = tested on: Y2513 OE ScCYP51 Y140H; experiment: MIC80 determination, strain Y2513; assay type: cell-based, S. cerevisiae; conditions: Saccharomyces cerevisiae
Summary of the method: as §1

[5] = tested on: Y2513 ScCYP51 Y140H mutant; experiment: Agarose (disk) diffusion assay, strain Y2513; assay type: cell-based, S. cerevisiae; conditions: 10 nmol/disk, 30 °C, 48 h
Summary of the method: (§3)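 Recombinant S. cerevisiae strains seeded at OD600 0.008 in CSM agarose overlay (0.6%, pH 6.8–7) on SD agarose. Racemic compounds applied at 10 nmol/disk on paper disks. Growth-inhibition zones assessed after 48 h at 30 °C.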

[6] = tested on: Y525 OE CaMDR1a; experiment: MIC80 determination, strain Y525; assay type: cell-based, S. cerevisiae
Summary of the method: as §1

[7] = target: CYP2D6 (Homo sapiens, UniProt P10635); experiment: biochemical; conditions: human liver drug metabolizing enzyme; read-out: CYP IC50 2D6
Sequence of CYP2D6 (P10635 whole entry): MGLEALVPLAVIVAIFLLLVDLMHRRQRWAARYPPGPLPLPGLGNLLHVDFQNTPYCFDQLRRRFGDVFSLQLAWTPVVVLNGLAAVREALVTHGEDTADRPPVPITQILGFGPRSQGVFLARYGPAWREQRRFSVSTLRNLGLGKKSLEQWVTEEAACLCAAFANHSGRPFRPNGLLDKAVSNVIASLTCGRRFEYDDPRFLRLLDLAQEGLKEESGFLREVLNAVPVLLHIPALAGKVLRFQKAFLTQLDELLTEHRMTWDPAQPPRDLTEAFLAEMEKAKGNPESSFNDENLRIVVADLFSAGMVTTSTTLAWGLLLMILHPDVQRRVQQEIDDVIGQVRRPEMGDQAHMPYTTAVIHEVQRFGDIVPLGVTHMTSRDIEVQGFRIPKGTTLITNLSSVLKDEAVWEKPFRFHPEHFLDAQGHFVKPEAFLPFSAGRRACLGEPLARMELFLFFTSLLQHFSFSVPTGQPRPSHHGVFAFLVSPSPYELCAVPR

[8] = tested on: Y433 OE CgCDR1; experiment: MIC80 determination, strain Y433; assay type: cell-based, S. cerevisiae; conditions: Saccharomyces cerevisiae
Summary of the method: as §1

[9] = tested on: Y2300 OE ScCYP51; experiment: MIC80 determination, strain Y2300; assay type: cell-based, S. cerevisiae; conditions: Saccharomyces cerevisiae
Summary of the method: as §1

[10] = tested on: Y610 FHB1; experiment: MIC80 determination, C. albicans clinical isolate Y610 FHB1; assay type: cell-based; conditions: Candida albicans; C. albicans clinical isolate Y610 FHB1 (weakly expresses CaCDR1); pH 7, 24 h
Summary of the method: as §1

[11] = tested on: Y2301 OE ScCYP51 Y140F; experiment: MIC80 determination, strain Y2301; assay type: cell-based, S. cerevisiae; conditions: Saccharomyces cerevisiae
Summary of the method: as §1

[12] = tested on: Y611 FHB3; experiment: MIC80 determination, C. albicans clinical isolate Y611 FHB3; assay type: cell-based; conditions: Candida albicans, 24 h, pH 7
Summary of the method: as §1

[13] = tested on: Y2301 ScCYP51 Y140F mutant; experiment: Agarose (disk) diffusion assay, strain Y2301; assay type: cell-based, S. cerevisiae; conditions: 10 nmol/disk, 30 °C, 48 h
Summary of the method: as §3

[14] = target: CYP2C9 (Homo sapiens, UniProt P11712); experiment: CYP IC50 profile, CYP2C9; assay type: biochemical; conditions: human liver drug metabolizing enzyme; read-out: CYP IC50 2C9
Sequence of CYP2C9 (P11712 whole entry, the tested form may be a part): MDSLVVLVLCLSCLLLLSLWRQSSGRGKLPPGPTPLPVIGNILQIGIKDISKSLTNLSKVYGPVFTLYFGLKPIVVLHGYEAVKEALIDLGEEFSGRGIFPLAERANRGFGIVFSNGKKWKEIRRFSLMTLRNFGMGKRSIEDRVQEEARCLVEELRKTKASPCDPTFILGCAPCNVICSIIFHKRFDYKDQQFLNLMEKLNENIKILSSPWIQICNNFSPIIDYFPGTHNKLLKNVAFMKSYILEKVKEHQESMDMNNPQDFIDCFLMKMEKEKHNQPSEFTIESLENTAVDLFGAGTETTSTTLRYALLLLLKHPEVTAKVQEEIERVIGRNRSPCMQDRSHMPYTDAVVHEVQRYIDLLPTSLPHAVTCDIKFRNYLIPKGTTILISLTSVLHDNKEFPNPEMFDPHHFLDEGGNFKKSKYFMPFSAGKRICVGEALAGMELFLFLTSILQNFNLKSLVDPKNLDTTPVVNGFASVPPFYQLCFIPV

[15] = tested on: Y2411 azole sensitive control strain; experiment: Agarose (disk) diffusion assay, strain Y2411; assay type: cell-based, S. cerevisiae; conditions: 10 nmol/disk, 30 °C, 48 h
Description: Final compounds were screened as racemic mixtures using agarose diffusion assays to visualize their inhibitory activity against a panel of recombinant S. cerevisiae strains i.e., S. cerevisiae strains expressing control levels of wild-type CYP51 (ScCYP51), overexpressed wild-type ScCYP51, overexpressed azole-resistant ScCYP51 Y140F/H mutations and overexpressed C. albicans efflux pumps MDR1a or CDR1B (Figure and Table S1).
The susceptibilities of S. cerevisiae and Candida species strains to azole compounds were observed as zones of growth inhibition in agarose diffusion assays. The disk diffusion assays were carried out as described by Keniya et al. Complete supplement mixture (CSM) agarose (0.6% agarose [wt/vol]; 20 mL of synthetic defined medium (SD); pH 6.8–7) was solidified in a rectangular Petri dish which was overlaid with CSM agarose (0.6% [wt/vol]; 5 mL; pH 6.8–7) seeded with yeast cells at an optical density (OD600) of 0.008 (118,000 cells per 1 mL of overlay). Azole compounds (10 nmol/disk) were applied to sterile BBL paper disks (Becton Dickinson Co., Sparks, MD) and placed on solidified overlays. Cell growth was assessed after incubation at 30 °C for 48 h.

[16] = target: CYP3A4 (Homo sapiens, UniProt P08684); experiment: CYP IC50 profile, CYP3A4; assay type: biochemical; conditions: human liver drug metabolizing enzyme; read-out: CYP IC50 3A4
Sequence of CYP3A4 (P08684 whole entry): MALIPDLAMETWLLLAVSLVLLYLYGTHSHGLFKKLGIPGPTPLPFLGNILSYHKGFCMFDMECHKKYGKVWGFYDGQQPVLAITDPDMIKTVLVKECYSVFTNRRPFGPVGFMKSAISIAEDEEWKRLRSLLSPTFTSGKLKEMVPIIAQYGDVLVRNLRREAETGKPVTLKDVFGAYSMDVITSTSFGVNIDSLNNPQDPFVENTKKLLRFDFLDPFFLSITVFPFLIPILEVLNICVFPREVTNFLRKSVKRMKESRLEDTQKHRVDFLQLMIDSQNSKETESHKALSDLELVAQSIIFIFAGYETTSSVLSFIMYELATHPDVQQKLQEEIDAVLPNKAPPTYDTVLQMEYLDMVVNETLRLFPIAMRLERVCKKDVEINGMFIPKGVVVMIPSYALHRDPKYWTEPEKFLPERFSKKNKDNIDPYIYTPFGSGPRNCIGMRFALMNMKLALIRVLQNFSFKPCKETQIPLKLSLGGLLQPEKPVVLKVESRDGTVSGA

[17] = tested on: Y71 SC5314; experiment: MIC80 determination, C. albicans clinical isolate Y71 SC5314; assay type: cell-based; conditions: Candida albicans
Summary of the method: as §1

[18] = tested on: Y1; experiment: MIC80 determination, C. albicans clinical isolate Y1; assay type: cell-based; conditions: Candida albicans, pH 7, 24 h
Summary of the method: as §1

[19] = tested on: Y2768 OE CauCYP51 Y132F; experiment: MIC80 determination, strain Y2768; assay type: cell-based, S. cerevisiae
Method: as §2

[20] = tested on: Y2716 OE CpCYP51 Y132F; experiment: MIC80 determination, strain Y2716; assay type: cell-based, S. cerevisiae
Summary of the method: as §1

[21] = tested on: MCF-10A cells; experiment: Viability (CellTiter Blue) assay; assay type: cell-based, human; conditions: 48 h, 10 μM to 1 pM
Method: Human epithelial breast cells, MCF-10A, were routinely cultured in DMEM/F-12 (Fisher Scientific, Loughborough, UK) containing 5% heat-inactivated horse serum (ThermoFisher Scientific, UK), 20 ng/mL hEGF (Merck Life Science, Dorset, UK), 500 ng/mL hydrocortisone (Merck Life Science, Dorset, UK) and 10 μg/mL insulin (Merck Life Science, Dorset, UK) under tissue culture conditions (37 °C, 5% CO2 in a humidified incubator). Cells were passaged upon reaching confluency using 0.25% Trypsin/EDTA (Fisher Scientific, Loughborough, UK) for a maximum of 15 passages from defrosting. […].
Cells were seeded in 100 μL of complete medium per well in a black, flat-bottomed, 96-well tissue-culture-treated plate (Fisher Scientific, Loughborough, UK) at a density of 4000 cells/well and incubated under tissue culture conditions for 24 h. Cells were then treated by mixing in an additional 100 μL of drug/diluent control in complete medium to give final concentrations of 10 μM–1 pM. DMSO was used as a vehicle control, and as a positive toxic control, staurosporine was added at a final concentration of 10 μM. Cells were then incubated for 48 h under tissue culture conditions before the treatments were replaced with fresh media before performing the CellTiter Blue assay (Promega, Southampton, UK) was performed following the manufacturer's instructions. […]

[22] = Saccharomyces cerevisiae, 48 h, pH 6.8

Work on `O=C(NCC(O)(Cn1cncn1)c1ccc(F)cc1F)c1ccc(-c2ccc(OC(F)(F)F)cc2)cc1` (stereo not drawn) [Compound 22, N-(2-(2,4-Difluorophenyl)-2-hydroxy-3-(1H-1,2,4-triazol-1-yl)propyl)-4’-(trifluoromethoxy)-[1,1’-biphenyl]-4-carboxamide] yielded an MIC80 [1, 22] of 0.054 ± 0.022 µM, an MIC ([1]; read-out: MIC (nM) C. albicans model Y2459) of 54 ± 22 nM and an MIC ([2]; Candidozyma auris, read-out: MIC (nM) C. auris model Y2769) of 225 ± 33 nM. For the same molecule, the MIC80 ([2]; Saccharomyces cerevisiae) was 0.225 ± 0.033 µM, the MIC80 [3] was 20.9 µM and the MIC80 ([4]; 48 h, pH 6.8) was 0.078 ± 0.056 µM. For the same molecule, the MIC ([4]; read-out: MIC (nM) S. cerevisiae Y2513) was 78 ± 56 nM, the “zone of growth inhibition (inhibitory activity in words)” value (“zone of growth inhibition” for short) [5] was “unaffected inhibition zone size” and the MIC80 [6, 22] was 0.451 µM. It also gave an MIC ([6]; read-out: MIC (nM) C. albicans model Y525) of 451 nM, an IC50 [7] of over 25 µM and an MIC80 [8] of 5.85 µM. For the same molecule, the MIC80 ([9]; 48 h, pH 6.8) was 0.114 ± 0.014 µM, the MIC ([9]; read-out: MIC (nM) S. cerevisiae Y2300) was 114 ± 14 nM and the MIC80 [10] was 0.153 ± 0.067 µM. For the same molecule, the MIC80 ([11]; 48 h, pH 6.8) was 0.093 ± 0.046 µM, the MIC ([11]; read-out: MIC (nM) S. cerevisiae Y2301) was 93 ± 46 nM and the MIC80 [12] was 1.65 µM. For the same molecule, the “zone of growth inhibition” value [13] was “unaffected inhibition zone size”, the IC50 [14] was over 25 µM and the “zone of growth inhibition” value [15] was “high potency”. The IC50 [16] was 1.62 ± 0.23 µM, the MIC ([17]; SC5314, supplement csv) was 40 nM and the MIC80 ([17]; C. albicans clinical isolate Y71 SC5314, pH 7, 24 h) was 0.04 µM. The MIC80 [18] was 0.067 µM, the MIC ([19]; Candidozyma auris, read-out: MIC (nM) C. auris model Y2768) was 241 ± 38 nM and the MIC80 ([19]; Saccharomyces cerevisiae) was 0.241 ± 0.038 µM. For the same molecule, the “increase in resistance owing to the CpCYP51 Y132F mutation” value ([20]; MIC80 Y2716 versus Y2721) was 2 fold, the MIC80 ([20]; Saccharomyces cerevisiae) was 0.21 ± 0.043 µM and the “cell viability (tolerance in words)” value [21] was “very well tolerated”.
